Like-named read-outs stand apart in the source and are kept apart here.
How the values were obtained:
[1] = Supersaturation-precipitation; assay type: physicochemical; conditions: for Duration intended degree of drug supersaturation was maintained / Time to drug precipitation: base buffer, preliminary experiments, SSR 5 (CVDL) / 6 (PXM)
Caco-2 monolayers = conditions: human, 100 min
[2] = system: Caco-2:HT29-MTX-E12 co-culture monolayers; conditions: human, 100 min
[3] = Equilibrium solubility determination in test media; assay type: physicochemical; conditions: 37 °C; for Equilibrium solubility, effect of addition of mucin: 0.1, 0.2, 0.4 %w/v mucin in 10 mM phosphate buffer pH 6.50 relative to buffer; for Equilibrium solubility, effect of addition of 8 %w/v PIM: 8 %w/v native pig intestinal mucus in 10 mM phosphate buffer pH 6.50 relative to buffer
[4] = 1 SSR (multiple of equilibrium solubility)
[5] = 5 SSR (multiple of equilibrium solubility)

Time after which drug started to precipitate ([1]; SSR = 6, buffer alone, HPLC) [h]	SSR reached at 24 h ([1]; SSR = 6 induced, buffer alone, HPLC)	SSR maintained throughout the monitoring period ([1]; SSR = 6 induced, presence of mucin (regardless of concentration) and PIM, HPLC)	SMILES	Time drug remained supersaturated ([1]; SSR = 5, 8 %w/v native PIM, ISE) [h]	Time to precipitation (Tss), effect of increasing mucin concentration ([1]; SSR = 5, ISE, up to 0.2 %w/v mucin)	Time within which supersaturated drug precipitated (ISE) ([1]; SSR = 5, absence of mucus, ISE, average ± SEM, n=3) [min]	Time after which drug precipitated (HPLC) ([1]; SSR = 5, buffer solution, HPLC analysis) [min]	SSR maintained throughout the monitoring period ([1]; SSR = 5 induced, 0.4 %w/v mucin, ISE, 24 h)	SSR maintained throughout the monitoring period ([1]; SSR = 5 induced, 8 %w/v PIM, ISE, 24 h)	Duration intended degree of drug supersaturation was maintained [1]	Time to drug precipitation [1] [h]	TEER relative to starting value (Caco-2 monolayers; [4]) [% starting value]	TEER relative to starting value (Caco-2 monolayers; [5])	TEER relative to starting value [2, 4] [% starting value]	TEER relative to starting value [2, 5]	Equilibrium solubility, effect of addition of mucin [3]	Equilibrium solubility, effect of addition of 8 %w/v PIM [3]
			COc1ccccc1OCCNCC(O)COc1cccc2[nH]c3ccccc3c12 (stereo not drawn) [CVDL, Carvedilol]	24	significantly increased	19 ± 4	> 10	> 3	> 3	at least 5 min	≤ 1	> 80	~ 60 % starting value	> 80	~ 60 % starting value	did not change	significantly increased
> 5	~ 4	6	CN1C(C(=O)Nc2ccccn2)=C(O)c2ccccc2S1(=O)=O [PXM, piroxicam]							at least 5 min	≤ 5					appeared to increase	significantly increased

From publication PMC6467574 (Journal of controlled release : official journal of the …, 2018)
